Data reported in PubChem BioAssay (NCI).
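Tested at 5 concentrations; 48 h exposure; 96-well plates; endpoints linearly interpolated, else capped at highest concentration. Abbreviation: GI50, concentration required for 50% inhibition of growth. At the TGI there is no net growth.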

Columns and labels:
Assay in all cases: DTP human tumour cell line panel, 48 h
[1] = test system: A549 NSCLC
[2] = test system: SW-620 colon
[3] = test system: OVCAR-4 ovarian
[4] = test system: OVCAR-3 ovarian
[5] = test system: UACC-62 melanoma
[6] = test system: HOP-92 NSCLC
[7] = test system: SK-MEL-2 melanoma
[8] = test system: RXF 393 renal
[9] = test system: BT-549 breast
[10] = test system: MDA-MB-435

CCOC(=O)C12CC1(C(=O)OCC)C1CCC2C1 (stereo not given)
TGI [1]: > 100 µM
TGI [2]: > 100 µM
TGI [3]: > 100 µM
TGI [4]: > 100 µM
TGI [5]: > 100 µM
TGI [6]: 95.2 µM

Cc1ccc(NC(=O)C(=O)Cc2nc3ccccc3o2)c(C)c1
TGI [1]: > 100 µM
TGI [7]: > 100 µM
TGI [8]: > 100 µM
TGI [2]: > 100 µM
TGI [3]: > 100 µM
TGI [4]: > 100 µM
TGI [5]: > 100 µM
TGI [6]: > 100 µM

O=Cc1coc2ccccc2c1=O
TGI [1]: 84.9 µM
TGI [9]: 36.8 µM
TGI [8]: 40.2 µM
TGI [2]: 41.5 µM
TGI [3]: 43.8 µM
TGI [4]: > 100 µM
TGI [5]: 52.8 µM
TGI [10]: 47.9 µM

COc1ccc(C(=O)C=C2NCCN2)cc1
TGI [1]: > 100 µM
TGI [7]: > 100 µM
TGI [8]: > 100 µM
TGI [2]: > 100 µM
TGI [3]: > 100 µM
TGI [4]: > 100 µM
TGI [5]: > 100 µM
TGI [6]: > 100 µM

Cc1cc(C)nc(NS(=O)(=O)c2ccc(NC(=O)c3cccc4cc5ccccc5nc34)cc2)n1
TGI [1]: > 100 µM
TGI [7]: 85.6 µM
TGI [8]: > 100 µM
TGI [2]: > 100 µM
TGI [3]: > 100 µM
TGI [4]: 65.3 µM
TGI [5]: 79.3 µM

CCNCC(O)c1ccc(N)c([N+](=O)[O-])c1 (stereo not given)
TGI [1]: > 100 µM
TGI [9]: > 100 µM
TGI [7]: > 100 µM
TGI [2]: > 100 µM
TGI [3]: > 100 µM
TGI [4]: > 100 µM
TGI [5]: > 100 µM
TGI [10]: > 100 µM

Fc1ccc(-c2ncn(C3CCNCC3)c2-c2ccnc(Oc3cccc(F)c3)n2)cc1
GI50 [1]: 24.7 µM
TGI [1]: > 25 µM
GI50 [9]: > 24 µM
TGI [9]: > 25 µM
GI50 [7]: > 25 µM
TGI [7]: > 25 µM
GI50 [8]: 5.32 µM
TGI [8]: > 13.3 µM
GI50 [2]: 5.54 µM
TGI [2]: > 14.7 µM
GI50 [3]: 16.8 µM
TGI [3]: > 25 µM
GI50 [4]: > 20.9 µM
TGI [4]: > 25 µM
GI50 [5]: 10.5 µM
TGI [5]: > 18.6 µM
GI50 [10]: 6.57 µM
TGI [10]: > 19.4 µM

O=C1C(c2ccccc2)=C(c2ccccc2)C(c2ccc(CCCCCCc3ccc(C4=C(c5ccccc5)C(=O)C(c5ccccc5)=C4c4ccccc4)cc3)cc2)=C1c1ccccc1
TGI [1]: > 100 µM
TGI [7]: > 100 µM
TGI [8]: 79.7 µM
TGI [2]: > 100 µM
TGI [3]: > 100 µM
TGI [4]: > 100 µM
TGI [5]: > 100 µM
TGI [6]: > 100 µM

COc1ccc(NC(=O)C(=O)C2NC(=S)NC2=O)c(OC)c1 (stereo not given)
TGI [1]: > 100 µM
TGI [7]: > 100 µM
TGI [8]: > 100 µM
TGI [2]: > 100 µM
TGI [3]: > 100 µM
TGI [4]: > 100 µM
TGI [5]: > 100 µM
TGI [6]: > 100 µM

FC(F)(F)c1ccc(-c2cnc(Br)nc2NC2CCCCCC2)cc1
GI50 [1]: 86.5 µM
TGI [1]: > 100 µM
GI50 [9]: 72.9 µM
TGI [9]: > 100 µM
GI50 [8]: 24.9 µM
TGI [8]: > 100 µM
GI50 [2]: 96.7 µM
TGI [2]: > 100 µM
GI50 [3]: 26 µM
TGI [3]: > 100 µM
GI50 [4]: 70.8 µM
TGI [4]: > 100 µM
GI50 [5]: 42.6 µM
TGI [5]: > 100 µM
GI50 [10]: > 100 µM
TGI [10]: > 100 µM

Cc1ccc(Nc2ccc(Nc3ccc(C)cc3)c3c2C(=O)c2c(O)ccc(O)c2C3=O)cc1
TGI [1]: > 100 µM
TGI [7]: > 100 µM
TGI [8]: > 100 µM
TGI [2]: > 100 µM
TGI [3]: > 100 µM
TGI [4]: > 100 µM
TGI [5]: > 100 µM
TGI [6]: > 100 µM

O=[N+]([O-])c1ccccc1C1N2CCCCC2[C@@H]2c3[nH]c4ccccc4c3CCN12 (stereo not given in full)
TGI [1]: 35.8 µM
TGI [7]: 26.5 µM
TGI [8]: 26.4 µM
TGI [2]: 23.4 µM
TGI [3]: 32.3 µM
TGI [4]: 63.3 µM
TGI [5]: 14.4 µM
TGI [6]: 29.2 µM

CCS/C(Nc1ccccc1)=C(\C#N)C(=O)Nc1ccc(OC)cc1
GI50 [1]: 5.91 µM
TGI [1]: > 100 µM
GI50 [9]: 2.8 µM
TGI [9]: > 100 µM
GI50 [7]: 3.01 µM
TGI [7]: > 100 µM
GI50 [8]: 2.24 µM
TGI [8]: 7.86 µM
GI50 [2]: 2.55 µM
TGI [2]: > 100 µM
GI50 [3]: 7.61 µM
TGI [3]: > 100 µM
GI50 [4]: 2.6 µM
TGI [4]: 8.59 µM
GI50 [5]: 2.58 µM
TGI [5]: > 100 µM
GI50 [10]: 0.37 µM
TGI [10]: 1.89 µM

Cc1nc(C(N)=S)sc1C(=O)/C=C/c1cccc(O)c1
TGI [1]: > 100 µM
TGI [7]: > 100 µM
TGI [8]: > 100 µM
TGI [2]: > 100 µM
TGI [4]: > 100 µM
TGI [5]: > 100 µM
TGI [6]: > 100 µM

COC(=O)C1=C(C(=O)OC)C2(C(=O)OC)OC1(OC)C(C1(C(=O)OC)C(C(=O)OC)=C1C(=O)OC)=C2C(=O)OC (stereo not given)
TGI [1]: > 100 µM
TGI [7]: > 100 µM
TGI [8]: > 100 µM
TGI [2]: > 100 µM
TGI [4]: > 100 µM
TGI [5]: > 100 µM
TGI [6]: > 100 µM

Fc1ccccc1C1CC(C(c2ccccc2)c2ccccc2)=Nc2ccccc2S1 (stereo not given)
TGI [1]: 46.4 µM
TGI [7]: 21.6 µM
TGI [8]: 17.2 µM
TGI [2]: 31 µM
TGI [3]: 32.9 µM
TGI [4]: 24.4 µM
TGI [5]: 18.7 µM

COC(=O)C1(Cc2cccc(Cl)c2)CCCCCCN1C(=O)c1ccccc1 (stereo not given)
TGI [1]: 33.6 µM
TGI [9]: 40.8 µM
TGI [2]: 36 µM
TGI [3]: 50.6 µM
TGI [4]: 20.4 µM
TGI [5]: 28.5 µM
TGI [10]: 51.8 µM
TGI [6]: 35.6 µM

CCCCCCCCCC(=O)CC(=O)c1c(O)cccc1O
TGI [1]: 96.1 µM
TGI [7]: 67 µM
TGI [8]: 72.1 µM
TGI [2]: 83.2 µM
TGI [3]: > 100 µM
TGI [4]: 80.9 µM
TGI [5]: > 100 µM

CCN(CC)CCCNC(=O)Cc1ccccc1Nc1c(Cl)cccc1Cl
TGI [1]: 36.2 µM
TGI [8]: 30.6 µM
TGI [2]: 32.8 µM
TGI [3]: 33.1 µM
TGI [4]: 31.5 µM
TGI [5]: 29.5 µM

C=C(C)C1/C=C(/C(C)C)CC[C@]2(C)O[C@@H]2CC[C@H](C)CC1=O (stereo not given in full)
GI50 [1]: 48.5 µM
TGI [1]: > 100 µM
GI50 [7]: > 100 µM
TGI [7]: > 100 µM
GI50 [8]: 32 µM
TGI [8]: > 100 µM
GI50 [3]: 72.4 µM
TGI [3]: > 100 µM
GI50 [4]: 25.4 µM
TGI [4]: 81.1 µM
GI50 [5]: 80.2 µM
TGI [5]: > 100 µM
GI50 [10]: 39 µM
TGI [10]: > 100 µM
GI50 [6]: 99.5 µM
TGI [6]: > 100 µM

C/C(=N\Nc1ccc([N+](=O)[O-])cc1)C(=O)N(C)Nc1ccccc1
TGI [1]: > 100 µM
TGI [7]: > 100 µM
TGI [8]: > 100 µM
TGI [2]: > 100 µM
TGI [3]: > 100 µM
TGI [4]: > 100 µM
TGI [5]: > 100 µM
TGI [6]: > 100 µM

CN(O)C(=O)Cc1ccccc1
TGI [1]: > 100 µM
TGI [8]: > 100 µM
TGI [2]: > 100 µM
TGI [3]: > 100 µM
TGI [4]: > 100 µM
TGI [5]: > 100 µM
TGI [6]: > 100 µM

COC1=C(OC)CCC(/C(C#N)=C/c2ccc(OC)c(OC)c2)=C1
TGI [1]: > 100 µM
TGI [7]: > 100 µM
TGI [8]: 92.9 µM
TGI [2]: > 100 µM
TGI [3]: > 100 µM
TGI [4]: > 100 µM
TGI [5]: > 100 µM
TGI [6]: > 100 µM
